# Experimental data reported in PubChem BioAssay (NCI).
#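 Results reflect a 48-hour exposure of cells in 96-well plates to compound at five concentrations. Abbreviation: GI50, concentration required for 50% inhibition of growth. TGI: total growth inhibition.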
# System: A549 NSCLC
# Assay: growth of human tumour cells (NCI), 48 h
Compound,TGI [µM],GI50 [µM]
COc1ccc2c(c1)CCCN2CCCCCCCCCCN(CCC(C)C)CCC(C)C,26.2,
O=P1(c2ccccc2)Nc2ccccc2SSc2ccccc2N1,46.1,
COc1ccc(-c2nc3ncccn3c2-c2ccc(SC)cc2)cc1,9.88,
C[C@H]1C(=O)O[C@@H]2CCN3CC=C(COC(=O)[C@](C)(O)[C@@]1(C)O)[C@H]23,> 100,
N=C1C(=N)c2ccccc2-c2ccccc21.N=C1C(=N)c2ccccc2-c2ccccc21.N=C1C(=N)c2ccccc2-c2ccccc21.[Cl-].[Ru+2],> 27.9,
CCOC(=O)c1c2c(n(Cc3ccccc3)c1C)C(=O)C(=O)c1ccccc1-2,1.35,
CN(C)C(=O)/C=C/c1c[nH]c(=O)[nH]c1=O,> 500,
CN(C)CCCn1cnc2cc(Cl)c(Cl)cc21,> 100,
NCCCn1c2c(c3ccc([N+](=O)[O-])cc3c1=O)C(=O)c1ccccc1-2,,0.0233
O=C1NI(C#Cc2ccccc2)c2ccccc21,> 100,
CCc1nc(N)nc(N)c1-c1ccc([N+](C)(C)C)cc1,> 100,
Cc1cc2c(cc1C(=O)c1ccc(N)cc1)OCO2,> 100,
NCCc1cc(O)c(O)cc1O,> 100,
COc1ccc(C2=C3SC=c4ccccc4=C3ON=C2c2ccccc2)cc1,> 100,
CC(=O)NNc1nc(-c2ccc([N+](=O)[O-])cc2)c(C#N)c(=O)n1C,> 100,
CCCOC(=O)CNC(=O)OC(C)(C)C,> 100,
CN(C)CCNC(=O)c1cccc2ccc(-c3ccc(F)cc3)nc12,17.9,

# System: IGROV1 ovarian
# Assay: growth of human tumour cells (NCI), 48 h
Compound,TGI [µM],GI50 [µM]
Nc1n[nH]c(=O)c2c1c(I)cn2C1OC(CO)C(O)C1O (stereo not drawn),> 100,
O=C(Nc1ccc([N+](=O)[O-])cc1[N+](=O)[O-])C(=O)C(C(=O)c1ccc2ccccc2c1)C1OC(=O)c2ccccc21 (stereo not drawn),43.5,
COc1cc(/C=C/C(=O)Oc2ccc(NC(C)=O)cc2)ccc1C(=O)O/C=C/c1ccccc1,> 100,
COc1ccc2c(c1)CCCN2CCCCCCCCCCN(CCC(C)C)CCC(C)C,27.7,
O=P1(c2ccccc2)Nc2ccccc2SSc2ccccc2N1,38.2,
COc1ccc(-c2nc3ncccn3c2-c2ccc(SC)cc2)cc1,8.15,
C[C@H]1C(=O)O[C@@H]2CCN3CC=C(COC(=O)[C@](C)(O)[C@@]1(C)O)[C@H]23,> 100,
N=C1C(=N)c2ccccc2-c2ccccc21.N=C1C(=N)c2ccccc2-c2ccccc21.N=C1C(=N)c2ccccc2-c2ccccc21.[Cl-].[Ru+2],5.01,
CCOC(=O)c1c2c(n(Cc3ccccc3)c1C)C(=O)C(=O)c1ccccc1-2,> 100,
CN(C)C(=O)/C=C/c1c[nH]c(=O)[nH]c1=O,> 500,
CN(C)CCCn1cnc2cc(Cl)c(Cl)cc21,> 100,
NCCCn1c2c(c3ccc([N+](=O)[O-])cc3c1=O)C(=O)c1ccccc1-2,> 50,0.215
O=C1NI(C#Cc2ccccc2)c2ccccc21,> 100,
CCc1nc(N)nc(N)c1-c1ccc([N+](C)(C)C)cc1,> 100,
Cc1cc2c(cc1C(=O)c1ccc(N)cc1)OCO2,> 100,
NCCc1cc(O)c(O)cc1O,38.2,
COc1ccc(C2=C3SC=c4ccccc4=C3ON=C2c2ccccc2)cc1,> 100,
CC(=O)NNc1nc(-c2ccc([N+](=O)[O-])cc2)c(C#N)c(=O)n1C,35,
CCCOC(=O)CNC(=O)OC(C)(C)C,> 100,
CN(C)CCNC(=O)c1cccc2ccc(-c3ccc(F)cc3)nc12,20.3,

# System: SF-268 CNS
# Assay: growth of human tumour cells (NCI), 48 h
Compound,TGI [µM],GI50 [µM]
Nc1n[nH]c(=O)c2c1c(I)cn2C1OC(CO)C(O)C1O (stereo not drawn),25.7,
O=C(Nc1ccc([N+](=O)[O-])cc1[N+](=O)[O-])C(=O)C(C(=O)c1ccc2ccccc2c1)C1OC(=O)c2ccccc21 (stereo not drawn),43.1,
COc1cc(/C=C/C(=O)Oc2ccc(NC(C)=O)cc2)ccc1C(=O)O/C=C/c1ccccc1,> 100,
COc1ccc2c(c1)CCCN2CCCCCCCCCCN(CCC(C)C)CCC(C)C,25.6,
O=P1(c2ccccc2)Nc2ccccc2SSc2ccccc2N1,34,
COc1ccc(-c2nc3ncccn3c2-c2ccc(SC)cc2)cc1,3.15,
C[C@H]1C(=O)O[C@@H]2CCN3CC=C(COC(=O)[C@](C)(O)[C@@]1(C)O)[C@H]23,> 100,
N=C1C(=N)c2ccccc2-c2ccccc21.N=C1C(=N)c2ccccc2-c2ccccc21.N=C1C(=N)c2ccccc2-c2ccccc21.[Cl-].[Ru+2],3.28,
CCOC(=O)c1c2c(n(Cc3ccccc3)c1C)C(=O)C(=O)c1ccccc1-2,1.27,
CN(C)C(=O)/C=C/c1c[nH]c(=O)[nH]c1=O,> 500,
CN(C)CCCn1cnc2cc(Cl)c(Cl)cc21,> 100,
NCCCn1c2c(c3ccc([N+](=O)[O-])cc3c1=O)C(=O)c1ccccc1-2,> 12.2,0.24
O=C1NI(C#Cc2ccccc2)c2ccccc21,> 100,
CCc1nc(N)nc(N)c1-c1ccc([N+](C)(C)C)cc1,> 100,
Cc1cc2c(cc1C(=O)c1ccc(N)cc1)OCO2,> 100,
NCCc1cc(O)c(O)cc1O,58.5,
COc1ccc(C2=C3SC=c4ccccc4=C3ON=C2c2ccccc2)cc1,> 100,
CC(=O)NNc1nc(-c2ccc([N+](=O)[O-])cc2)c(C#N)c(=O)n1C,> 100,
COc1cc(C2CC(c3cccc(Nc4ccncc4)c3)=NN2c2ccc(Cl)cc2)cc(OC)c1OC (stereo not drawn),3.06,1.58
CCCOC(=O)CNC(=O)OC(C)(C)C,> 100,
CN(C)CCNC(=O)c1cccc2ccc(-c3ccc(F)cc3)nc12,22.2,

# System: EKVX NSCLC
# Assay: growth of human tumour cells (NCI), 48 h
Compound,TGI [µM],GI50 [µM]
Nc1n[nH]c(=O)c2c1c(I)cn2C1OC(CO)C(O)C1O (stereo not drawn),7.85,
O=C(Nc1ccc([N+](=O)[O-])cc1[N+](=O)[O-])C(=O)C(C(=O)c1ccc2ccccc2c1)C1OC(=O)c2ccccc21 (stereo not drawn),48,
COc1cc(/C=C/C(=O)Oc2ccc(NC(C)=O)cc2)ccc1C(=O)O/C=C/c1ccccc1,> 100,
COc1ccc2c(c1)CCCN2CCCCCCCCCCN(CCC(C)C)CCC(C)C,20,
O=P1(c2ccccc2)Nc2ccccc2SSc2ccccc2N1,33.4,
C[C@H]1C(=O)O[C@@H]2CCN3CC=C(COC(=O)[C@](C)(O)[C@@]1(C)O)[C@H]23,> 100,
N=C1C(=N)c2ccccc2-c2ccccc21.N=C1C(=N)c2ccccc2-c2ccccc21.N=C1C(=N)c2ccccc2-c2ccccc21.[Cl-].[Ru+2],3.41,
CCOC(=O)c1c2c(n(Cc3ccccc3)c1C)C(=O)C(=O)c1ccccc1-2,1.74,
CN(C)C(=O)/C=C/c1c[nH]c(=O)[nH]c1=O,> 281,
CN(C)CCCn1cnc2cc(Cl)c(Cl)cc21,> 100,
NCCCn1c2c(c3ccc([N+](=O)[O-])cc3c1=O)C(=O)c1ccccc1-2,1.69,0.317
CCc1nc(N)nc(N)c1-c1ccc([N+](C)(C)C)cc1,> 100,
Cc1cc2c(cc1C(=O)c1ccc(N)cc1)OCO2,> 100,
NCCc1cc(O)c(O)cc1O,65.9,
COc1ccc(C2=C3SC=c4ccccc4=C3ON=C2c2ccccc2)cc1,> 100,
CC(=O)NNc1nc(-c2ccc([N+](=O)[O-])cc2)c(C#N)c(=O)n1C,> 100,
COc1cc(C2CC(c3cccc(Nc4ccncc4)c3)=NN2c2ccc(Cl)cc2)cc(OC)c1OC (stereo not drawn),2.88,1.46
CCCOC(=O)CNC(=O)OC(C)(C)C,> 100,

# System: SNB-19 CNS
# Assay: growth of human tumour cells (NCI), 48 h
Compound,TGI [µM],GI50 [µM]
Nc1n[nH]c(=O)c2c1c(I)cn2C1OC(CO)C(O)C1O (stereo not drawn),> 100,
O=C(Nc1ccc([N+](=O)[O-])cc1[N+](=O)[O-])C(=O)C(C(=O)c1ccc2ccccc2c1)C1OC(=O)c2ccccc21 (stereo not drawn),33,
COc1cc(/C=C/C(=O)Oc2ccc(NC(C)=O)cc2)ccc1C(=O)O/C=C/c1ccccc1,> 100,
COc1ccc2c(c1)CCCN2CCCCCCCCCCN(CCC(C)C)CCC(C)C,27.7,
O=P1(c2ccccc2)Nc2ccccc2SSc2ccccc2N1,30.3,
COc1ccc(-c2nc3ncccn3c2-c2ccc(SC)cc2)cc1,5.94,
C[C@H]1C(=O)O[C@@H]2CCN3CC=C(COC(=O)[C@](C)(O)[C@@]1(C)O)[C@H]23,> 100,
N=C1C(=N)c2ccccc2-c2ccccc21.N=C1C(=N)c2ccccc2-c2ccccc21.N=C1C(=N)c2ccccc2-c2ccccc21.[Cl-].[Ru+2],6.35,
CN(C)C(=O)/C=C/c1c[nH]c(=O)[nH]c1=O,> 500,
CN(C)CCCn1cnc2cc(Cl)c(Cl)cc21,> 100,
NCCCn1c2c(c3ccc([N+](=O)[O-])cc3c1=O)C(=O)c1ccccc1-2,7.05,0.0721
O=C1NI(C#Cc2ccccc2)c2ccccc21,> 100,
CCc1nc(N)nc(N)c1-c1ccc([N+](C)(C)C)cc1,> 100,
Cc1cc2c(cc1C(=O)c1ccc(N)cc1)OCO2,> 100,
NCCc1cc(O)c(O)cc1O,> 100,
COc1ccc(C2=C3SC=c4ccccc4=C3ON=C2c2ccccc2)cc1,> 100,
CC(=O)NNc1nc(-c2ccc([N+](=O)[O-])cc2)c(C#N)c(=O)n1C,> 100,
COc1cc(C2CC(c3cccc(Nc4ccncc4)c3)=NN2c2ccc(Cl)cc2)cc(OC)c1OC (stereo not drawn),2.91,1.55
CCCOC(=O)CNC(=O)OC(C)(C)C,> 100,
CN(C)CCNC(=O)c1cccc2ccc(-c3ccc(F)cc3)nc12,33.7,
